Data on one molecule can be found in PMC6611794, “Development of a high-throughput strategy for discovery of potent analogues of antibiotic lysocin E” (Nature Communications, 2019).

How the values of test [1] were obtained: Preparation of LUVs consisting of PC/PG/MK-4 or PC/PG/UQ-10. To a solution of egg yolk phosphatidylcholine (9.48 mg, 12.4 µmol) and egg yolk phosphatidylglycerol (9.66 mg, 12.4 µmol) in CHCl3 (0.208 mL) was added a solution of MK-4 (2) or UQ-10 (3) (0.313 µmol) in CHCl3 (21.8 µL). The solution was concentrated, and dried under vacuum to for m a lipid thin film. The thin film was hydrated and suspended in carboxyfluorescein-containing buffer solution (0.500 mL, 5 mM HEPES, 20 mM carboxyfluorescein , pH 7.5) by vortexing and sonication. After five-times freeze-thaw cycles, the lipid suspension was extruded 19 times through a polycarbonate filter with 0.40 µm of pore siz e in the diameter.
The external carboxyfluorescein -containing buffer was replaced with a carboxyfluorescein -free buffer solution (20 mM HEPES, 1 mM EDTA, pH 7.5) through size exclusion chromatography using disposable PD -10 column. Concentration of egg yolk phosphatidylcholine was determined by using Phospholipid C -Test Wako.
The final concentration of egg yolk phosphatidylcholine was adjusted to 4.0 µM with the carboxyfluorescein -free buffer solution, and the solution was used for membrane disruption ass ay.
Membrane disruption assay. […]
to various concentrations as 5-fold serial dilutions. The solution of peptides (2 µL/well) and the carboxyfluorescein-encapsulated LUV suspension (200 µL/well) were mixed in black polystyrene flat-bottom 96-well plates. The final concentration of peptides ranged from 2970 nM to 0.950 nM. The plates were vortexed at room temperature for 30 min, and then fluorescence of carboxyfluorescein (Ex. 490 nm/Em. 517 nm) of each well was measured at room temperature on Gemini EM microplate reader. Trion X-100/H2O (5/95, 2 µL), MeOH/H2O (4/6, 2 µL), and the LUV suspension were mixed in each plate to determine 100% lysis. MeOH/H2O (4/6, 2 µL) and the LUV suspension were mixed in each plate to determine 0% lysis.
The membrane disruption activities of tested peptides (I) were normalized against 100% lysis by Triton X -100 […]
(Imax) and 0% lysis by MeOH/H2O (4/6) (I0) as following, where Ix is the fluorescence intensity (Supplementary Equation 2).
I = 100 × (Ix – I0) / (Imax – I0) (2)
The membrane-disrupting activities were evaluated as half-maximal response (EC50, nM) values by means of three replicates. Sigmoidal curve fittings were performed on R2 with drc package (Supplementary Figs S7–S9).3 Two-parameter logistic model was applied for the fitting.

Another test relates to MRSA4. It counts as cell-based, Staphylococcus aureus. The conditions noted are these: 18 h. The method, then: (§1) Antimicrobial activity assay of bead-derived peptides. […]
(§2) plate was added DMSO (1 µL/well). […]
(§3) precipitation of the grown cells was examined.
(§4) Evaluation of antimicrobial spectra of peptides. The MIC assay was performed according to the Clinical and Laboratory Standards Institute protocols. The antimicrobial activities of the peptides were measured […]
(§5) Soy Broth or Müller Hinton Broth agar plates. Bacterial inoculum was prepared by direct suspension of the […]
(§6) and incubated at 37 °C for 18 h. […]
(§7) inhibited growth of bacteria.

Another test deals with S. aureus. On the set-up: method as in PMID 25485686. The following applies: S. aureus-infected mice; cited from earlier work. The text has this: Lysocin E (1, Fig. 1a) was isolated from Lysobacter sp. as a new antibiotic and structurally determined to be a 37-membered depsipeptide (molecular weight = 1618 Da) with an N-methylated amide and ester linkages. The macrocyclic core of 12 residues contains four different non-proteinogenic D-amino acids (D-Arg-2/7, N-Me-D-Phe-5, D-Gln-9, D-Trp-10) and is appended with (R)-3-hydroxy-5-methylhexanamide. […] Screening of the additives ind ...

Test [2] relates to Staphylococcus aureus Smith ATCC 13709. Format: cell-based. On the procedure:
as §1, §2, §3, §4, §5, §6, §7

Test [3] has as its system Staphylococcus aureus MSSA1. On the procedure:
(§8) Evaluation of antimicrobial spectra of peptides. The MIC assay was performed according to the Clinical and Laboratory Standards Institute protocols. The antimicrobial activities of the peptides were measured using the broth microdilution method.1 Serial dilutions of peptides were prepared in cation adjusted Müller Hinton Broth. Each dilution (100 µL) was dispensed to each well of the round-bottom plate to obtain final concentrations ranging from 64 µg/m L to 0.0075 µg/m L. Bacteria were grown at 37 °C overnight on Tryptic Soy Broth or Müller Hinton Broth agar plates. Bacterial inoculum was prepared by direct suspension of the colonies in 0.9% saline, and adjusted to obtain OD 625 0.08–0.13 using a spectrophotometer UV -1280 (Shimadzu). The resultant suspension was diluted with cation adjusted Müller Hinton Broth (1/20). The resultant mixture (10 µL) was inoculated to each well of the plates (approximately 5 ×10^4 CFU/well ), mixed, and incubated at 37 °C for 18 h. The MIC value was determined as the minimum concentration that inhibited growth of bacteria. To evaluate the antimicrobial activities of peptides in the presence of serum, 10% bovine calf serum in cation adjusted Müller Hinton Broth was used.

Test [4] concerns Staphylococcus aureus RN4220. The method, then: ×105 colony forming units (CFU) , 21 g/L Müller Hinton Broth (Difco), 5 0 mg/L Ca2+ (adjusted with CaCl2• 2H2O), and 25 mg/L Mg 2+ (adjusted with MgCl 2•6H2O)]. […]
as §8

Details of test [5]: method as in our previous studies. The following applies: ref our previous studies, cited from earlier work. An excerpt: (§9) Lysocin E (1, Fig. 1a) was isolated from Lysobacter sp. as a new antibiotic and structurally determined to be a 37-membered depsipeptide (molecular weight = 1618 Da) with an N-methylated amide and ester linkages. The macrocyclic core of 12 residues contains four different non-proteinogenic D-amino acids (D-Arg-2/7, N-Me-D-Phe-5, D-Gln-9, D-Trp-10) and is appended with (R)-3-hydroxy-5-methylhexanamide.

Another test concerns MRSA. Also noted: method as in PMID 25485686. The following applies: cited from earlier work.
From the text: as §9

Converted amounts (≈) assume the structure as drawn. Where two headings read alike, the source gives them in different places. Where a SMILES comes first, the peptide text is derived from it. Bridges are numbered along the chain shown (N, C = ends). [ ]: non-standard residue; d: D form. The star is where a group is joined. Hexanoyl(3R-OH,5-Me) = CC(C)C[C@@H](O)CC(=O)*; dNMeF = CN[C@H](Cc1ccccc1)C(=O)O

One may read the MIC as the lowest concentration found to suppress growth. The term ED50 denotes the dose at which the effect has come halfway, by size or by number of responders. As usually defined, the Kd is a measure of binding affinity in units of concentration.

On to `CC[C@H](C)[C@@H]1NC(=O)[C@@H](Cc2c[nH]c3ccccc23)NC(=O)[C@@H](CCC(N)=O)NC(=O)[C@H](CCC(=O)O)NC(=O)[C@@H](CCCNC(=N)N)NC(=O)[C@H](CC(C)C)NC(=O)[C@@H](Cc2ccccc2)N(C)C(=O)CNC(=O)[C@H](CO)NC(=O)[C@@H](CCCNC(=N)N)NC(=O)[C@@H](NC(=O)C[C@H](O)CC(C)C)[C@@H](C)OC(=O)[C@H]([C@@H](C)O)NC1=O` [Peptide 1, Lysocin E] ({Hexanoyl(3R-OH,5-Me)}-T[dR]SG[dNMeF]L[dR]E[dQ][dW]IT; ester 1-C), for which the “selectivity index (EC50 against PC/PG/3 divided by EC50 against PC/PG/2)” value in test [1] is recorded as 4.7. In addition, the EC50 in test [1] (read-out: EC50 PC/PG/2 1st, PC/PG/2 LUVs, 1st experiment) is 0.0167 µM; in test [1] (read-out: EC50 PC/PG/2 2nd, PC/PG/2 LUVs, 2nd experiment), 0.034 µM; in test [1] (read-out: EC50 PC/PG/2 3rd, PC/PG/2 LUVs, 3rd experiment), 0.0079 µM; in test [1] (read-out: EC50 PC/PG/2, 30 min, room temperature, mean ± SD of three independent experiments) it was 0.0195 µM. For the same molecule, the MIC was 0.25 mg/L (≈ 0.155 µM) with MRSA4; 0.0625 mg/L (≈ 0.0386 µM) in test [2] (10% BCS (+)); 2.0 mg/L (≈ 1.24 µM) in test [2] (ATCC 13709, 18 h); 0.0625 mg/L (≈ 0.0386 µM) in test [3] (10% BCS (+)); 2.0 mg/L (≈ 1.24 µM) in test [3] (BCS free); 0.125 mg/L (≈ 0.0773 µM) in test [4] (10% BCS (+)). The same molecule came in with an MIC in test [4] (BCS free) of 4.0 mg/L (≈ 2.47 µM). Besides, in the test with S. aureus, the ED50 is reported as 0.5 mg/kg. The “decrease of MIC by adding 10% BCS” value in test [2] is 64 fold. In addition, in test [5] (1:1 complex with MK-4, in vitro), the Kd is 4.5 µM. In addition, the “affinity toward ubiquinone-10” value in test [5] (in vitro) was “no affinity”. The “minimum inhibitory concentration (MIC) against MRSA” value in the test on MRSA was 4 mg/L (≈ 2.47 µM).
